Laboratory results taken from patent US8329717B2, “Pyrimidine derivatives and their use for controlling undesired plant growth” (Bayer Cropscience AG, priority 2008, dated 2012).

Experiments:
Abutilon theophrasti [1] = assay: Pre-emergence herbicidal effect; format: in vivo; conditions: Dosage 320 g/ha, visual scoring after 3 weeks vs untreated controls, 100% = plants have died
Method in brief: (§1)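 Compounds were sprayed, in g/ha, on soil covering freshly sown seeds (sandy loam), using WP or EC formulations diluted in water at 600 to 800 l/ha plus 0.2% wetting agent; damage was judged visually 3 weeks later on a 0–100% scale.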

Alopecurus myosuroides [2] = assay: Pre-emergence herbicidal effect; format: in vivo; conditions: Dosage 320 g/ha, visual scoring after 3 weeks vs untreated controls, 100% = plants have died
Method in brief: as §1

Amaranthus retroflexus [3] = assay: Pre-emergence herbicidal effect; format: in vivo; conditions: Dosage 320 g/ha, visual scoring after 3 weeks vs untreated controls, 100% = plants have died
Method in brief: as §1

Avena fatua [4] = assay: Pre-emergence herbicidal effect; format: in vivo; conditions: Dosage 320 g/ha, visual scoring after 3 weeks vs untreated controls, 100% = plants have died
Method in brief: as §1

Cyperus esculentus = assay: Pre-emergence herbicidal effect; format: in vivo; conditions: Dosage 320 g/ha, visual scoring after 3 weeks vs untreated controls, 100% = plants have died
Method in brief: as §1

Echinochloa crus-galli [5] = assay: Pre-emergence herbicidal effect; format: in vivo; conditions: Dosage 320 g/ha, visual scoring after 3 weeks vs untreated controls, 100% = plants have died
Method in brief: as §1

Lolium multiflorum [6] = assay: Pre-emergence herbicidal effect; format: in vivo; conditions: Dosage 320 g/ha, visual scoring after 3 weeks vs untreated controls, 100% = plants have died
Method in brief: as §1

Matricaria inodora [7] = assay: Pre-emergence herbicidal effect; format: in vivo; conditions: Dosage 320 g/ha, visual scoring after 3 weeks vs untreated controls, 100% = plants have died
Method in brief: as §1

Setaria viridis [8] = assay: Pre-emergence herbicidal effect; format: in vivo; conditions: Dosage 320 g/ha, visual scoring after 3 weeks vs untreated controls, 100% = plants have died
Method in brief: as §1

Stellaria media [9] = assay: Pre-emergence herbicidal effect; format: in vivo; conditions: Dosage 320 g/ha, visual scoring after 3 weeks vs untreated controls, 100% = plants have died
Method in brief: as §1

Veronica persica [10] = assay: Pre-emergence herbicidal effect; format: in vivo; conditions: Dosage 320 g/ha, visual scoring after 3 weeks vs untreated controls, 100% = plants have died
Method in brief: as §1

PHBPU = assay: Post-emergence herbicidal effect; format: in vivo; conditions: Dosage 320 g/ha, one-leaf stage, visual scoring after ca. 3 weeks vs untreated controls, 100% = plants have died
Method in brief: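 Effect is rated visually as percent versus untreated plants (0% = like controls, 100% = plants died) about 3 weeks post-treatment. Plants at the one-leaf stage, 2 to 3 weeks from sowing in sandy loam, received spray of wettable powder or emulsion concentrate in 600 to 800 l/ha water plus 0.2% wetting agent, dosed in g/ha.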

Abutilon theophrasti [11] = assay: Post-emergence herbicidal effect; format: in vivo; conditions: Dosage 320 g/ha, one-leaf stage, visual scoring after ca. 3 weeks vs untreated controls, 100% = plants have died
Method in brief: (§2)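 Herbicidal effect scored visually at ca. 3 weeks as % of untreated control, 100% meaning plants died. Treatment: spray of aqueous WP or EC preparations, dosed in g/ha, water rate 600 to 800 l/ha with 0.2% wetting agent, onto one-leaf-stage plants raised 2-3 weeks in sandy loam.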

Alopecurus myosuroides [12] = assay: Post-emergence herbicidal effect; format: in vivo; conditions: Dosage 320 g/ha, one-leaf stage, visual scoring after ca. 3 weeks vs untreated controls, 100% = plants have died
Method in brief: as §2

Amaranthus retroflexus [13] = assay: Post-emergence herbicidal effect; format: in vivo; conditions: Dosage 320 g/ha, one-leaf stage, visual scoring after ca. 3 weeks vs untreated controls, 100% = plants have died
Method in brief: as §2

Avena fatua [14] = assay: Post-emergence herbicidal effect; format: in vivo; conditions: Dosage 320 g/ha, one-leaf stage, visual scoring after ca. 3 weeks vs untreated controls, 100% = plants have died
Method in brief: as §2

Echinochloa crus-galli [15] = assay: Post-emergence herbicidal effect; format: in vivo; conditions: Dosage 320 g/ha, one-leaf stage, visual scoring after ca. 3 weeks vs untreated controls, 100% = plants have died
Method in brief: as §2

Lolium multiflorum [16] = assay: Post-emergence herbicidal effect; format: in vivo; conditions: Dosage 320 g/ha, one-leaf stage, visual scoring after ca. 3 weeks vs untreated controls, 100% = plants have died
Method in brief: as §2

Matricaria inodora [17] = assay: Post-emergence herbicidal effect; format: in vivo; conditions: Dosage 320 g/ha, one-leaf stage, visual scoring after ca. 3 weeks vs untreated controls, 100% = plants have died
Method in brief: as §2

Polygonum convolvulus [18] = assay: Post-emergence herbicidal effect; format: in vivo; conditions: Dosage 320 g/ha, one-leaf stage, visual scoring after ca. 3 weeks vs untreated controls, 100% = plants have died
Method in brief: as §2

Setaria viridis [19] = assay: Post-emergence herbicidal effect; format: in vivo; conditions: Dosage 320 g/ha, one-leaf stage, visual scoring after ca. 3 weeks vs untreated controls, 100% = plants have died
Method in brief: as §2

Stellaria media [20] = assay: Post-emergence herbicidal effect; format: in vivo; conditions: Dosage 320 g/ha, one-leaf stage, visual scoring after ca. 3 weeks vs untreated controls, 100% = plants have died
Method in brief: as §2

Veronica persica [21] = assay: Post-emergence herbicidal effect; format: in vivo; conditions: Dosage 320 g/ha, one-leaf stage, visual scoring after ca. 3 weeks vs untreated controls, 100% = plants have died
Method in brief: as §2

Viola tricolor [22] = assay: Post-emergence herbicidal effect; format: in vivo; conditions: Dosage 320 g/ha, one-leaf stage, visual scoring after ca. 3 weeks vs untreated controls, 100% = plants have died
Method in brief: as §2

[23] = logp (HCOOH), chemicophysical data; conditions: for chromatographic logP: HCOOH (formic acid)
Polygonum convolvulus [24] = assay: Pre-emergence herbicidal effect; format: in vivo; conditions: Dosage 320 g/ha, visual scoring after 3 weeks vs untreated controls, 100% = plants have died
Method in brief: as §1

Viola tricolor [25] = assay: Pre-emergence herbicidal effect; format: in vivo; conditions: Dosage 320 g/ha, visual scoring after 3 weeks vs untreated controls, 100% = plants have died
Method in brief: as §1

Compound | Pre-emergence herbicidal effect ABUTH (Abutilon theophrasti [1]) [%] | Pre-emergence herbicidal effect ALOMY (Alopecurus myosuroides [2]) [%] | Pre-emergence herbicidal effect AMARE (Amaranthus retroflexus [3]) [%] | Pre-emergence herbicidal effect AVEFA (Avena fatua [4]) [%] | Pre-emergence herbicidal effect CYPES (Cyperus esculentus) [%] | Pre-emergence herbicidal effect ECHCG (Echinochloa crus-galli [5]) [%] | Pre-emergence herbicidal effect LOLMU (Lolium multiflorum [6]) [%] | Pre-emergence herbicidal effect MATIN (Matricaria inodora [7]) [%] | Pre-emergence herbicidal effect SETVI (Setaria viridis [8]) [%] | Pre-emergence herbicidal effect STEME (Stellaria media [9]) [%] | Pre-emergence herbicidal effect VERPE (Veronica persica [10]) [%] | Post-emergence herbicidal effect PHBPU (PHBPU) [%] | Post-emergence herbicidal effect ABUTH (Abutilon theophrasti [11]) [%] | Post-emergence herbicidal effect ALOMY (Alopecurus myosuroides [12]) [%] | Post-emergence herbicidal effect AMARE (Amaranthus retroflexus [13]) [%] | Post-emergence herbicidal effect AVEFA (Avena fatua [14]) [%] | Post-emergence herbicidal effect ECHCG (Echinochloa crus-galli [15]) [%] | Post-emergence herbicidal effect LOLMU (Lolium multiflorum [16]) [%] | Post-emergence herbicidal effect MATIN (Matricaria inodora [17]) [%] | Post-emergence herbicidal effect POLCO (Polygonum convolvulus [18]) [%] | also measured
Cc1ccc2c(c1)[C@H](Nc1nc(C)c(C#N)c(N)n1)[C@@H](C)C2 [Example 1.17] | 100 | 100 | 100 | 90 | 90 | 100 | 100 | 100 | 100 | 100 | 100 | 90 | 87 | 90 | 97 | 80 | 93 | 93 | 85 | 80 | Post-emergence herbicidal effect SETVI (Setaria viridis [19]): 90%; Post-emergence herbicidal effect STEME (Stellaria media [20]): 97%; Post-emergence herbicidal effect VERPE (Veronica persica [21]): 87%; Post-emergence herbicidal effect VIOTR (Viola tricolor [22]): 90%; logp (HCOOH) [23]: solid, m.p.: 166.4° C.; logp (HCOOH): 2.40; 1H-NMR (CDCl3, 400 MHZ, δ in ppm): 1.25
Cc1ccc2c(c1)[C@H](Nc1ncc(C#N)c(N)n1)[C@@H](C)C2 [Example 1.35] | 100 | 100 | 100 | 100 | 100 | 100 | 100 | 100 | 100 | 100 | 100 | 90 | 95 | 100 | 93 | 95 | 100 | 90 | 85 | 90 | Pre-emergence herbicidal effect POLCO (Polygonum convolvulus [24]): 100%; Pre-emergence herbicidal effect VIOTR (Viola tricolor [25]): 100%; Post-emergence herbicidal effect SETVI (Setaria viridis [19]): 95%; Post-emergence herbicidal effect STEME (Stellaria media [20]): 95%; Post-emergence herbicidal effect VERPE (Veronica persica [21]): 95%; Post-emergence herbicidal effect VIOTR (Viola tricolor [22]): 90%; logp (HCOOH) [23]: wax-like; logp (HCOOH): 2.35; 1H-NMR (CDCl3, 400 MHZ, δ in ppm): 1.25 (d, 3H, CH3);
Cc1ccc2c(c1)[C@H](Nc1nc(N)c(C#N)c(-c3ccccc3F)n1)[C@@H](C)C2 [Example 1.104, 4-Amino-2-{[(1R,2S)-2,6-dimethyl-2,3-dihydro-1H-inden-1-yl]amino}-6-(2-fluorophenyl)pyrimidine-5-carbonitrile] |  |  |  |  |  |  |  |  |  |  |  |  |  |  |  |  |  |  |  |  | melting point: 67 to 68 °C; chromatographic logP [23]: 3.65
Cc1ccc2c(c1)[C@H](Nc1ncc(Cl)c(N)n1)[C@@H](C)C2 [Example 1.105] | 100 | 100 | 100 | 80 | 100 | 100 | 100 | 100 | 100 | 100 | 100 | 90 | 90 | 80 | 90 | 90 | 100 | 90 | 90 | 80 | Pre-emergence herbicidal effect POLCO (Polygonum convolvulus [24]): 100%; Pre-emergence herbicidal effect VIOTR (Viola tricolor [25]): 100%; Post-emergence herbicidal effect SETVI (Setaria viridis [19]): 90%; Post-emergence herbicidal effect STEME (Stellaria media [20]): 90%; Post-emergence herbicidal effect VIOTR (Viola tricolor [22]): 80%; logp (HCOOH) [23]: wax-like; logp (HCOOH): 1.27; 1H-NMR (CDCl3, 400 MHZ, δ in ppm): 1.30 (d, 3H, CH3);
Nc1nc(N[C@@H]2CCCc3ccccc32)ncc1C(F)(F)F [Example 1.108, N2-[(1R)-1,2,3,4-Tetrahydronaphthalen-1-yl]-5-(trifluoromethyl)pyrimidine-2,4-diamine] |  |  |  |  |  |  |  |  |  |  |  |  |  |  |  |  |  |  |  |  | melting point: 130.8 °C; chromatographic logP [23]: 1.64
C#Cc1cnc(N[C@H]2c3cc(C)ccc3C[C@@H]2C)nc1N [Example 1.119, N2-[(1R,2S)-2,6-Dimethyl-2,3-dihydro-1H-inden-1-yl]-5-ethynylpyrimidine-2,4-diamine] |  |  |  |  |  |  |  |  |  |  |  |  |  |  |  |  |  |  |  |  | melting point: 99 °C; chromatographic logP [23]: 1.43
